The source made the active and inactive calls.
What was measured:
[1] = target: T1, Sentrin-specific protease 8 (Homo sapiens, UniProt Q96LD8); assay: SENP8 protease inhibitors, SAR follow-up, biochemical, luminescence, set 2 (AID 588601); format: functional
T1 sequence (Q96LD8 whole entry): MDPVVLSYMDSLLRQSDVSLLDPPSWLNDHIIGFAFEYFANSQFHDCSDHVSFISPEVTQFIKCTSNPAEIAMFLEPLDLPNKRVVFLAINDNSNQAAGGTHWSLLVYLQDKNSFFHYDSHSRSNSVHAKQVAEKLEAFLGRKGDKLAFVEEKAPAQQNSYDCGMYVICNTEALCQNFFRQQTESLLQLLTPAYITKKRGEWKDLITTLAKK

Caspase-3 = target: T2, Caspase-3 (Homo sapiens, UniProt P42574); assay: caspase-3 inhibitors as off-family protease, SAR follow-up, selectivity assay for SENP protease inhibitor project, biochemical, luminescence, set 2 (AID 588599); format: functional
T2 sequence (P42574 whole entry): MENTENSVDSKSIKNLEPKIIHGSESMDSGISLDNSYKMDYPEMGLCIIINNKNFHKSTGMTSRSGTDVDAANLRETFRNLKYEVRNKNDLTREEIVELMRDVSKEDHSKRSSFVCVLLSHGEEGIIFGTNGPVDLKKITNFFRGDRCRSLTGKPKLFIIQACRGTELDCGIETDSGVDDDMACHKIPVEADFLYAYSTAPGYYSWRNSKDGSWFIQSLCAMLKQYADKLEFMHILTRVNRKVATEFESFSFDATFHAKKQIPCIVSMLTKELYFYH

[2] = target: T3, Sentrin-specific protease 6 (Homo sapiens, UniProt Q9GZR1); assay: SENP6 protease inhibitors, SAR follow-up, biochemical, luminescence, set 2 (AID 588598); format: functional
T3 sequence (Q9GZR1 whole entry): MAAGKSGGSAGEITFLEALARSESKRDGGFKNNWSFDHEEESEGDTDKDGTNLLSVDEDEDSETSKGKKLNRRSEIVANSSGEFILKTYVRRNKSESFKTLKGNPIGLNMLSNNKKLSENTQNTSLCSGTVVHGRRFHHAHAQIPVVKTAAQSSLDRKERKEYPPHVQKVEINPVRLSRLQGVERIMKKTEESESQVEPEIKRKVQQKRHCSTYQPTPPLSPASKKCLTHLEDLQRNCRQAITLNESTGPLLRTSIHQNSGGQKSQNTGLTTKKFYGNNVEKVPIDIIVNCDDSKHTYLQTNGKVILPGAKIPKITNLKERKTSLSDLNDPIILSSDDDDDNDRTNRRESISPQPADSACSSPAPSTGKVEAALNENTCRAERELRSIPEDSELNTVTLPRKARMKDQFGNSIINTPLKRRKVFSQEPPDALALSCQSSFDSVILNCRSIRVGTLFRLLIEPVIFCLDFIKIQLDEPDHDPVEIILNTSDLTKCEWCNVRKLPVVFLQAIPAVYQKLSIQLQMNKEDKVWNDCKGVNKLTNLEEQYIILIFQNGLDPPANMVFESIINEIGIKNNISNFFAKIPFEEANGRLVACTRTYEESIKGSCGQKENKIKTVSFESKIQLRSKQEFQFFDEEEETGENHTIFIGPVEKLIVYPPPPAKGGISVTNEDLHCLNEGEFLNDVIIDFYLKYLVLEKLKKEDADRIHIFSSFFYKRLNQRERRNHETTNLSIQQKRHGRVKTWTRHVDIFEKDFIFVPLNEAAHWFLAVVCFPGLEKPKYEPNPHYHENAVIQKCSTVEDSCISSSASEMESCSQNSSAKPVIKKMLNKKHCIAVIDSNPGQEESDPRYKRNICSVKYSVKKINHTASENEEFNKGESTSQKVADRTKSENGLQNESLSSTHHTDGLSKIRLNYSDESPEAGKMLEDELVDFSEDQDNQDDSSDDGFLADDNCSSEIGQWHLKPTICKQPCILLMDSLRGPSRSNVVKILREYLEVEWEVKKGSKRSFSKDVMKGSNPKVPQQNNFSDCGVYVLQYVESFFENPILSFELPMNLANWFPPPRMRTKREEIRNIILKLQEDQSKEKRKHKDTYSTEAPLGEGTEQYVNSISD

[3] = target: T4, Sentrin-specific protease 7 (Homo sapiens, UniProt Q9BQF6); assay: SENP7 protease inhibitors, SAR follow-up, biochemical, luminescence, set 2 (AID 588600); format: functional
T4 sequence (Q9BQF6 whole entry): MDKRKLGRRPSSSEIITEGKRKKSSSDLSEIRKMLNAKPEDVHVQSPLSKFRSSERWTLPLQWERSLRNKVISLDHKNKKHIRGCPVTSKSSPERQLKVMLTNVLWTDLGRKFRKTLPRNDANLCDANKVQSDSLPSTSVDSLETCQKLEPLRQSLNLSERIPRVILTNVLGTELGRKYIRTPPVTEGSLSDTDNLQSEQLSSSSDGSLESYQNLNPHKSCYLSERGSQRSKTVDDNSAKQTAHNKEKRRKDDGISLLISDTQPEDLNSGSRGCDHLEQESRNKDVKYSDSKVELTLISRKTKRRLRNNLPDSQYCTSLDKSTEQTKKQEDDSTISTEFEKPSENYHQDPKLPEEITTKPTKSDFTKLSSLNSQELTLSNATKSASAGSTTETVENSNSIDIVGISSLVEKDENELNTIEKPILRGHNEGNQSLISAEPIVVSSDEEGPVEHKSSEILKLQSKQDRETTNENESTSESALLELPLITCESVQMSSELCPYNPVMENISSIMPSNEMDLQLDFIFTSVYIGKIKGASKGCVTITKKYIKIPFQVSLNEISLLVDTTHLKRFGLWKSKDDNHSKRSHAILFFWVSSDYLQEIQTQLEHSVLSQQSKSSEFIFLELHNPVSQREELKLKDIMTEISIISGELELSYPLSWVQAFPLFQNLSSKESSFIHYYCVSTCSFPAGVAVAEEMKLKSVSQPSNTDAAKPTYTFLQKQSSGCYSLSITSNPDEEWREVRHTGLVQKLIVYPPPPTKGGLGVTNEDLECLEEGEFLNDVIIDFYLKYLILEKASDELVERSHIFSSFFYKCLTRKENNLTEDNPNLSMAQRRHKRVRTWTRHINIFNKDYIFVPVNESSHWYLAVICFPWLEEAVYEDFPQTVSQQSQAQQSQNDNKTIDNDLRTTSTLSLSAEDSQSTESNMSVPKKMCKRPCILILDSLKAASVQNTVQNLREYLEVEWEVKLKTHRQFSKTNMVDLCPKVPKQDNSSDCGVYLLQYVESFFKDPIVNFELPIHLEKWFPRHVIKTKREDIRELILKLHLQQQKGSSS

[4] = target: T5, High affinity choline transporter 1 (Homo sapiens, UniProt Q9GZV3); assay: CHT activators, dose response, cell-based, 10-point CRC, membrane potential dye (AID 602376); format: functional
T5 sequence (Q9GZV3 whole entry): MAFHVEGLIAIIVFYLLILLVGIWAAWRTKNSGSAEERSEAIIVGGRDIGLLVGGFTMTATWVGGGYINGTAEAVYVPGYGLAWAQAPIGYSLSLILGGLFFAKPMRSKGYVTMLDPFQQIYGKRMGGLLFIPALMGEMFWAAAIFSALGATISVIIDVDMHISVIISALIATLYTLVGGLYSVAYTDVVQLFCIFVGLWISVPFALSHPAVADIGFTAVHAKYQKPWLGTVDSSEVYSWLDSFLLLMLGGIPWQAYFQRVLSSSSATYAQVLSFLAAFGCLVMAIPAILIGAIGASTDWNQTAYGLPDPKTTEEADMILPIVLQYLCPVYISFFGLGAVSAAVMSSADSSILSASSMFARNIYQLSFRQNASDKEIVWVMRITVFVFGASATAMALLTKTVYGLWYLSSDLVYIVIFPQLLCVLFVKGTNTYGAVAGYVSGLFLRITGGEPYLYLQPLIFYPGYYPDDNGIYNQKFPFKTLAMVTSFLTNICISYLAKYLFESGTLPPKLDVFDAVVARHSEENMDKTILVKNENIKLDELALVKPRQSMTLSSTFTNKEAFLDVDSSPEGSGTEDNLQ

[5] = target: T6, Ubiquitin-conjugating enzyme E2 N (Homo sapiens, UniProt P61088); format: functional;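 note: Dose-response confirmation in a TR-FRET assay detecting UBC13-driven polyubiquitin chain formation, inhibition measured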
T6 sequence (P61088 whole entry): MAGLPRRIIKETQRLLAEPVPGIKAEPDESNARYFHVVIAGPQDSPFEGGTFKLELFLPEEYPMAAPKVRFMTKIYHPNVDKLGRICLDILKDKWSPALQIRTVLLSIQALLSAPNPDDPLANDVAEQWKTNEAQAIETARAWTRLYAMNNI

[6] = target: 26S proteasome non-ATPase regulatory subunit 14 (Homo sapiens, UniProt O00487); assay: inhibition of proteasome subunit RPN11 – biochemical, fluorescence polarization, uHTS hits, confirmation (AID 602368); format: functional
Chain of 26S proteasome non-ATPase regulatory subunit 14 (O00487 whole entry): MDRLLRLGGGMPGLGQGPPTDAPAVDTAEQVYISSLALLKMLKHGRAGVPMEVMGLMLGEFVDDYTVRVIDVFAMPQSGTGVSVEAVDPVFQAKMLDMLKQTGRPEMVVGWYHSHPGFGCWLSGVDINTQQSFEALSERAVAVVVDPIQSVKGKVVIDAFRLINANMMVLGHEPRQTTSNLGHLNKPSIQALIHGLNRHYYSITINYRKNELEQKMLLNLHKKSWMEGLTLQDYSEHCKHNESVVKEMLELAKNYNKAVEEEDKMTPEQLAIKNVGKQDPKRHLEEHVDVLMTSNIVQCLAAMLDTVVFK

[7] = target: 72 kDa type IV collagenase (Homo sapiens, UniProt P08253); assay: Dose Response validation of uHTS RPN11 inhibitor hits using a MMP-2 Fluorescence assay.; format: functional
Chain of 72 kDa type IV collagenase (P08253 whole entry): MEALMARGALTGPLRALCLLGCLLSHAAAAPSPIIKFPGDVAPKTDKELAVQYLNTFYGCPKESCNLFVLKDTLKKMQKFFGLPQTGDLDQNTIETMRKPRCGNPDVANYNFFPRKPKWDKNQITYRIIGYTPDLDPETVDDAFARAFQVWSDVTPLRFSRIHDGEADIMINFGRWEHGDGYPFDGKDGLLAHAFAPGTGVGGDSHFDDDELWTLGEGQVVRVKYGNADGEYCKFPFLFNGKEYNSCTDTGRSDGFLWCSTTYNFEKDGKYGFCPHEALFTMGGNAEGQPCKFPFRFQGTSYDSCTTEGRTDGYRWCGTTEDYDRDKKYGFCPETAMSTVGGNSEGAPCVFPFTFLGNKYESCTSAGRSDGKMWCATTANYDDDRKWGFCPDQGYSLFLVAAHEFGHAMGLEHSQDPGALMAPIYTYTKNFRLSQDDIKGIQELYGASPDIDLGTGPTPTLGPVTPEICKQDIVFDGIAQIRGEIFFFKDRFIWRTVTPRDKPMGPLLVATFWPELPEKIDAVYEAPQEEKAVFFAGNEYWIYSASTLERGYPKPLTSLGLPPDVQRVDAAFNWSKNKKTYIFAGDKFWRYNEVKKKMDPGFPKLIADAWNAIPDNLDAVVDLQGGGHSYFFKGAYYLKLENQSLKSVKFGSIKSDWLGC

Prothrombin = Prothrombin (Bos taurus, UniProt P00735); assay: thrombin inhibition, dose response, biochemical, fluorescence polarization, uHTS hits (AID 602369); format: functional
[8] = target: Multidrug resistance protein CDR1 (Candida albicans, UniProt P43071); assay: CaCDR1 efflux pump inhibitors in yeast, dose response, S. cerevisiae AD1-8u, singleplex, Cherry Pick1 hits (AID 588606); format: functional
Chain of Multidrug resistance protein CDR1 (P43071 whole entry, looked up): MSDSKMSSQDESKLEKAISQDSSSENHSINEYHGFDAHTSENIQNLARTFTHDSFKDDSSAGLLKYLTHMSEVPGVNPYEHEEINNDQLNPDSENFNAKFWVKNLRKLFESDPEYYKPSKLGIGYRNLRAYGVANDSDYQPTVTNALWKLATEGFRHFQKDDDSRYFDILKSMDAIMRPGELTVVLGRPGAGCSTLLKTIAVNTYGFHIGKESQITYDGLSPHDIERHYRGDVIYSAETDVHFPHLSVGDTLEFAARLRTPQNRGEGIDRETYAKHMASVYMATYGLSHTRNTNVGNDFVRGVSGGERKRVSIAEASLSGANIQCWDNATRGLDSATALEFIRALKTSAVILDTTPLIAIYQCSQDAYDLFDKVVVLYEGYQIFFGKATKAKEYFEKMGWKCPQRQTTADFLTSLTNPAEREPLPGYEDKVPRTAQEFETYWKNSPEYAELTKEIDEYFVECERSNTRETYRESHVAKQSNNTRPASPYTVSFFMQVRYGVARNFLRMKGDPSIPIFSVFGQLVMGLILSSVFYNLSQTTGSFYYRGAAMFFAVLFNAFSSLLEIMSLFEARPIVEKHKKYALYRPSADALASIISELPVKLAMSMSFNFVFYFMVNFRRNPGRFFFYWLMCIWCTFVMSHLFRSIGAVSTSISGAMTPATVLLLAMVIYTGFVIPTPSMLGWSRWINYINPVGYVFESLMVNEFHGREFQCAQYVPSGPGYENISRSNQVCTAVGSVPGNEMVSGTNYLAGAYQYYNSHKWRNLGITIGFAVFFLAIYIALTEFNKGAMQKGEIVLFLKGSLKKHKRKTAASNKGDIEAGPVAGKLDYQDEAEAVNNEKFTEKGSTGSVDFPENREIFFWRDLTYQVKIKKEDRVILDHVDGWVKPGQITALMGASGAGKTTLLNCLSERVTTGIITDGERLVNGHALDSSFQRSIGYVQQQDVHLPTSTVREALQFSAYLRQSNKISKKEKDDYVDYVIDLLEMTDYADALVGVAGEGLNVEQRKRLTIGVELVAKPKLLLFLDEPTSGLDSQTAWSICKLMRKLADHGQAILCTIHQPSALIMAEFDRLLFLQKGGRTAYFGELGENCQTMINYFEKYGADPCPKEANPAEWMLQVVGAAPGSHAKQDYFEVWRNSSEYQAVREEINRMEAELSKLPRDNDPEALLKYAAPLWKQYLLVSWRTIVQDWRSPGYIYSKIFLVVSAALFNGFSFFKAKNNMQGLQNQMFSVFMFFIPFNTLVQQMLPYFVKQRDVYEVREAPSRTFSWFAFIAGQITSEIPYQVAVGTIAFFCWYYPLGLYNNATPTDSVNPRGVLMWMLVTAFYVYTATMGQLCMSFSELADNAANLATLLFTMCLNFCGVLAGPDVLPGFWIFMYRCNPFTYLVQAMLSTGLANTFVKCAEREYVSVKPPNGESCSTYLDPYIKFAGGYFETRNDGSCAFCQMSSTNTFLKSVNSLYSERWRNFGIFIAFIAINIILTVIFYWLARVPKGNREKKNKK

INS1 [9] = assay: inhibitors of cytokine-induced nitrite release, dose response, cell-based, Griess absorbance, INS-1E, dry powder, set 2 (AID 488868); format: functional; conditions: Rattus norvegicus
[10] = inhibitors of cytokine-induced nitrite release, dose response, cell-based, Griess absorbance, INS-1E, dry powder, set 3 (AID 488870); format: functional; conditions: Rattus norvegicus
INS1 [11] = assay: protection from cytokine-induced mitochondrial depolarization, dose response, cell-based, INS-1E, JC-1 fluorescence ratio, dry powder (AID 488931); format: functional; conditions: Rattus norvegicus
INS1 [12] = assay: protection of INS-1E cells from cytokine death, dose response, ATP luminescence, dry powder (AID 488844); format: functional, cell-based; conditions: Rattus norvegicus
[13] = target: Heat shock protein HSP 90-alpha (Homo sapiens, UniProt P07900); format: functional, organism-based
[14] = CellTiter-Glo luminescent dose response of DLD-1 viability loss (AID 1117352); format: functional
[15] = cytotoxicity in HPDE-C7 cells, cell-based, fluorescence, HTS (AID 430); format: functional; conditions: Homo sapiens
[16] = cytotoxicity toward Colo320 cells – cell-based, CellTiter-Glo luminescence, IC50, dose response (AID 1117334); format: functional; conditions: COLO 320
[17] = HeLa 2N DNA content increase, dose response, cell-based, IC50 (AID 1117349); format: functional
HSP90 = HSP90 (Plasmodium falciparum 3D7, UniProt Q8IL32); format: functional, organism-based
Chain of HSP90 (Q8IL32 whole entry): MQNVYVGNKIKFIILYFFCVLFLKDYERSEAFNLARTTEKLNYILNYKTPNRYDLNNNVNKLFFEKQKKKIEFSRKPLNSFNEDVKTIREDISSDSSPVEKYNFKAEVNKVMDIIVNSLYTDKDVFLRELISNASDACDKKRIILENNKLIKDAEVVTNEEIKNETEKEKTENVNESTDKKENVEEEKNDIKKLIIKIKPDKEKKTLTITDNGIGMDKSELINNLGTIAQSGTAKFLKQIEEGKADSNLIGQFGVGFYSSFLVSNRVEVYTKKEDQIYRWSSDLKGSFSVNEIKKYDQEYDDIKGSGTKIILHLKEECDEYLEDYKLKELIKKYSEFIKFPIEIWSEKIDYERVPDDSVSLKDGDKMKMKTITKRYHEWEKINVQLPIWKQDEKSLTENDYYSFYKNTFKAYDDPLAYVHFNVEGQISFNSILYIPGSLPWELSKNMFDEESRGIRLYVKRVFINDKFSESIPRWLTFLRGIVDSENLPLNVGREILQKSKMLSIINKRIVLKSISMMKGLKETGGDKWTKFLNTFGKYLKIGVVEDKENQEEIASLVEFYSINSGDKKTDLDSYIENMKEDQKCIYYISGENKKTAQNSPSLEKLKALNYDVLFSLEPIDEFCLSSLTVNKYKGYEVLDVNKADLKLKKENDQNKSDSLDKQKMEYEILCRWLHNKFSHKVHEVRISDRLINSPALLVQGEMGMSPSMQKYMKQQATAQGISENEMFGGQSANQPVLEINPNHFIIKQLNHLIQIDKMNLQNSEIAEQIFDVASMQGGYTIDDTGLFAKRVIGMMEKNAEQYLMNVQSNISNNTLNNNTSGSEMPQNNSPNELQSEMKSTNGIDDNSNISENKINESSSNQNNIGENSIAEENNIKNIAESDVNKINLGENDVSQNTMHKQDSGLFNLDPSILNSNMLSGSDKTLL

[18] = cytotoxicity toward HT-29 cells – cell-based, CellTiter-Glo luminescence, IC50, dose response (AID 1117330); format: functional
[19] = HeLa 4N DNA content increase, dose response, cell-based, IC50 (AID 1117351); format: functional
Paired box protein Pax-8 = Paired box protein Pax-8 (Homo sapiens, UniProt Q06710); assay: inhibitors of PAX8-driven TPO luciferase reporter, dose response, RMG-I cells, cherry-pick (AID 687027); format: functional, cell-based;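 note: luciferase reporter driven by Pax8 target thyroperoxidase promoter measured by SteadyGlo luminescence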
Chain of Paired box protein Pax-8 (Q06710 whole entry): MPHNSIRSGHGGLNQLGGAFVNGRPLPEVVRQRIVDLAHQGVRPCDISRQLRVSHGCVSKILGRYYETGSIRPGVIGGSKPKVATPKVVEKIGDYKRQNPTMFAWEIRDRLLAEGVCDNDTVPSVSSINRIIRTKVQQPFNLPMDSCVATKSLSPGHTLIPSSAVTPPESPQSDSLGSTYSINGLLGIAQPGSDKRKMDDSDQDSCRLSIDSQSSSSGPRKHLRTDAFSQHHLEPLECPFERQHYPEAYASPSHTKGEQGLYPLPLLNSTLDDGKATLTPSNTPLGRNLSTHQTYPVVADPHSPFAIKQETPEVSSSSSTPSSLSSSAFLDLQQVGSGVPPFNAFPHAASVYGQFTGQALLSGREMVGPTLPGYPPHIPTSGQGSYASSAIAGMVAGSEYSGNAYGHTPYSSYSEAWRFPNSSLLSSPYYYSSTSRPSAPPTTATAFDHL

[20] = cytotoxicity in KRAS-transformed pancreatic duct cells, primary screen, cell-based, fluorescence, HTS (AID 431); format: functional; conditions: Homo sapiens;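 note: cell line used: HPDE-C7K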
[21] = RKO cell viability reduction, dose response, CellTiter-Glo luminescence (AID 1117322); format: functional
[22] = SNU-C1 cell viability reduction, dose response, CellTiter-Glo luminescence (AID 1117323); format: functional, cell-based
[23] = cytotoxicity toward HCT116 cells – cell-based, CellTiter-Glo luminescence, IC50, dose response (AID 1117332); format: functional; conditions: HCT-116
[24] = Concentration-dependent survival of SW480 colon cancer line, luminescence detection with CellTiter-Glo, half-maximal inhibitory concentration (AID 1117338); format: functional

## Cc1[nH]c2ccccc2c1C(=O)C(=O)N1CCC2(CC1)OCCO2
[1]
  IC50: > 99 µM (inactive)
Caspase-3
  IC50: > 99 µM (inactive)
[2]
  IC50: > 99 µM (inactive)
[3]
  IC50: > 99 µM (inactive)

## O=C(CCC1CCCCC1)NCCN1C2=NC[C@H](Cc3ccccc3)N2C[C@H]1Cc1ccc(O)cc1
[4]
  EC50: 13.4 µM (active)
[5]
  IC50: > 20 µM (inactive)

## CCc1c(O)n(C2CCCCC2)c(SCC(=O)Nc2ccc(C)cc2)nc1=O
[6]
  IC50: 38.3 µM (active)
[7]
  IC50: 20.6 µM (active)
Prothrombin
  IC50: 45.4 µM (active)

## Cc1ccc(OCc2cc(C(=O)NCC(C)(C)N3CCOCC3)no2)cc1C
[8]
  EC50: 0.001 µM (active)

## C[C@@H]1CN([C@@H](C)CO)C(=O)c2cccc(NC(=O)Nc3cccc(Cl)c3Cl)c2O[C@H]1CN(C)S(=O)(=O)c1ccc2c(c1)OCCO2
INS1 [9]
  AC50: 29.3 µM (active)
[10]
  AC50: 68.8 µM (active)
INS1 [11]
  AC50: 71.3 µM (active)
INS1 [12]
  AC50: 15.2 µM (active)

## Oc1c(I)cc(I)c2cccnc12 [IODOQUINOL]
[13]
  AC50: 0.391 µM (active)
[14]
  IC50: 0.0178 µM (active)
[15]
  EC50: 17.1 µM (active)
[16]
  IC50: 0.0213 µM (active)
[17]
  IC50: > 10 µM (inactive)
HSP90
  AC50: 0.314 µM (active)
[18]
  IC50: 0.705 µM (active)
[19]
  IC50: > 10 µM (inactive)
Paired box protein Pax-8
  AC50: 4.87 µM (active)
[20]
  EC50: 7.36 µM (active)
[21]
  IC50: 0.0227 µM (active)
[22]
  IC50: 0.0387 µM (active)
[23]
  IC50: 0.041 µM (active)
[24]
  IC50: 0.0036 µM (active)
